Experimental findings from patent US20250319046A1, “PHENYLALANINE-BASED LAT1 INHIBITORS AND USES THEREOF” (MAXYMUNE THERAPEUTICS, INC., priority 2024, published 2025) are described below.

Chain of LAT1 (Q01650 whole entry): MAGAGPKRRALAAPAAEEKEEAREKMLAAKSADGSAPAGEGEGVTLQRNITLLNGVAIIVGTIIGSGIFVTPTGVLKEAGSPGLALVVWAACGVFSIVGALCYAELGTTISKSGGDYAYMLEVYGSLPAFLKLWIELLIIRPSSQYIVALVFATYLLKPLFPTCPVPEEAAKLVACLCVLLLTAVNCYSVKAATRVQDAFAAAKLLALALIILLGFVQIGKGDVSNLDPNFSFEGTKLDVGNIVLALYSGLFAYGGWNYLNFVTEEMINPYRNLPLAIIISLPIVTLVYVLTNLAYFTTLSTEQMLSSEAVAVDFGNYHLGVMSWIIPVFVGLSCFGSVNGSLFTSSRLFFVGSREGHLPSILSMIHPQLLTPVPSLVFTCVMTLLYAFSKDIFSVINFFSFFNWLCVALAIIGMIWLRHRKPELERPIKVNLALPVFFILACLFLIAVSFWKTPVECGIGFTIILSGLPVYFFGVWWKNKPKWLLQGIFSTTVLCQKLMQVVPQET
Chain of LAT1 (P08195 whole entry partner): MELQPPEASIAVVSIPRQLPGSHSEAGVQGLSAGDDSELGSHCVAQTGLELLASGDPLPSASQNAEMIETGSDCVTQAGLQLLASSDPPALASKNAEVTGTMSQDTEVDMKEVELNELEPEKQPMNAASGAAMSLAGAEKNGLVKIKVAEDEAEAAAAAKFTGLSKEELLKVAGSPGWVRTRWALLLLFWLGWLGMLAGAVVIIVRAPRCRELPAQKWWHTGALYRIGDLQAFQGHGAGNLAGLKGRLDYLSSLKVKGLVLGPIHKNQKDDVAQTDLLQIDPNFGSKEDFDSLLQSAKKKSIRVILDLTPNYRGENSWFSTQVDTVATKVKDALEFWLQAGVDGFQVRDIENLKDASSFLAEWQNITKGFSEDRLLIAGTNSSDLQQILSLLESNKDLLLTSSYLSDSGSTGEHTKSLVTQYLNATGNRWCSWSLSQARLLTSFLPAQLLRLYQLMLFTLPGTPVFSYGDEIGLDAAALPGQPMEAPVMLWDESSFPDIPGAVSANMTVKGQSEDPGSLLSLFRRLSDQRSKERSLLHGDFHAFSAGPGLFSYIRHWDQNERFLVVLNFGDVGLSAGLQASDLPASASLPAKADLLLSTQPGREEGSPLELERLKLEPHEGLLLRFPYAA

For the test, the target named is LAT1 (Homo sapiens (Human), UniProt Q01650). In words: LAT1 uptake inhibition assay: [3H]-gabapentin competition uptake in LN229 cells. The settings on record: [3H]-gabapentin uptake, 15 min incubation in PBS, read-out: IC50, the concentration of test compound at which the [3H]-GP uptake was inhibited by 50%. The format is cell-based. As for the experimental part:
LAT1 Uptake Inhibition Assay
The ability of compounds to interact with LAT1 was measured using a radiolabeled competition uptake assay with [^3H]-Gabapentin ([^3H]-GP) (Perkin Elmer) in 96-well plates with LN229 cells (ATCC®). Ten (10)×10^3 (10,000) cells/well were plated in white, clear bottom plates and were allowed to grow for three (3) days. On the fourth day, the cells were washed and then incubated with 50,000 counts per minute (cpm) of [^3H]-GP in phosphate buffered saline (PBS) (VWR International) with increasing concentrations of test compounds in at least triplicate for 15 min. At end of the assay time, the incubation solution was removed, and plates were washed three times (3×) with 100 μL of ice-cold PBS buffer. One-hundred fifty (150) […] of scintillation fluid (VWR International) was added to each well, and the radioactivity retained within the cells was measured on a 96-well scintillation counter. Background uptake ([^3H]-GP uptake in the presence of 10 mM non-radiolabeled gabapentin (GP)) (MedKoo) was subtracted and data were normalized to the DMSO control ([^3H]-GP uptake in the absence of any competitor). Data were fitted to the Michaelis-Menten equation using GraphPad Prism (Version 8.2.0).
For the molecule `CS(=O)(=O)Nc1ccccc1C[C@H](N)C(=O)O` [Compound 1, (S)-2-Amino-3-(2-(methylsulfonamido)phenyl)propanoic Acid], the IC50 is not below 10000 nM.

With `Cc1ccc(NS(=O)(=O)c2cccc3c(N(C)C)cccc23)cc1C[C@H](N)C(=O)O` [Compound 2, (S)-2-Amino-3-(5-((5-(dimethylamino)naphthalene)-1-sulfonamido)-2-methylphenyl)propanoic Acid], the IC50 is 100 to 1000 nM. The value for `CN(C)c1cccc2c(S(=O)(=O)Nc3cccc(C[C@H](N)C(=O)O)c3)cccc12` [Compound 3, (S)-2-Amino-3-(3-((5-(dimethylamino)naphthalene)-1-sulfonamido)phenyl)propanoic Acid] was 100 to 1000 nM; that for `CN(C)c1cccc2c(S(=O)(=O)Nc3ccc(C[C@H](N)C(=O)O)cc3)cccc12` [Compound 4, (S)-2-amino-3-(4-((5-(dimethylamino)naphthalene)-1-sulfonamido)phenyl)propanoic acid] was 1000 to 10000 nM; that for `COc1ccc(NS(=O)(=O)c2cccc3c(N(C)C)cccc23)cc1C[C@H](N)C(=O)O` [Compound 5, (S)-2-Amino-3-(5-((5-(dimethylamino)naphthalene)-1-sulfonamido)-2-methoxyphenyl)propanoic Acid] was 100 to 1000 nM. On to `Cc1ccc(NS(=O)(=O)c2cccc3ccccc23)cc1C[C@H](N)C(=O)O` [Compound 6, (S)-2-Amino-3-(2-methyl-5-(naphthalene-1-sulfonamido)phenyl)propanoic Acid], for which the IC50 lay within 100 to 1000 nM. The value for `Cc1ccc(S(=O)(=O)Nc2ccc(C)c(C[C@H](N)C(=O)O)c2)cc1` [Compound 7, (S)-2-Amino-3-(2-methyl-5-((4-methylphenyl)sulfonamido)phenyl)propanoic Acid] was 100 to 1000 nM. To `COc1cc(NS(=O)(=O)c2cccc3c(N(C)C)cccc23)ccc1C[C@H](N)C(=O)O` [Compound 8, (S)-2-Amino-3-(4-((5-(dimethylamino)naphthalene)-1-sulfonamido)-2-methoxyphenyl)propanoic Acid] belongs 1000 to 10000 nM; to `Cc1ccc(NS(=O)(=O)c2cccc3ncccc23)cc1C[C@H](N)C(=O)O` [Compound 9, (S)-2-Amino-3-(2-methyl-5-(quinoline-5-sulfonamido)phenyl)propanoic Acid], 1000 to 10000 nM.

Take `Cc1ccc(NS(=O)(=O)c2cccnc2)cc1C[C@H](N)C(=O)O` [Compound 11, (S)-2-Amino-3-(2-methyl-5-(pyridine-3-sulfonamido)phenyl)propanoic Acid]: the IC50 lay within 1000 to 10000 nM.

Take `Cc1ccc(NS(=O)(=O)C2CCOCC2)cc1C[C@H](N)C(=O)O` [Compound 12, (S)-2-Amino-3-(2-methyl-5-((tetrahydro-2H-pyran)-4-sulfonamido)phenyl)propanoic Acid]: the IC50 was 1000 to 10000 nM. The value for `CC(=O)Nc1ccc(S(=O)(=O)Nc2ccc(C)c(C[C@H](N)C(=O)O)c2)c2ccccc12` [Compound 13, (S)-3-(5-((4-Acetamidonaphthalene)-1-sulfonamido)-2-methylphenyl)-2-aminopropanoic Acid] was 1000 to 10000 nM; that for `Cc1ccc(NS(=O)(=O)C2CC2)cc1C[C@H](N)C(=O)O` [Compound 14, (S)-2-Amino-3-(5-(cyclopropanesulfonamido)-2-methylphenyl)propanoic Acid] was 1000 to 10000 nM. To `CN(C)c1cccc2c(S(=O)(=O)Nc3ccc(Cl)c(C[C@H](N)C(=O)O)c3)cccc12` [Compound 15, (S)-2-Amino-3-(2-chloro-5-((5-(dimethylamino)naphthalene)-1-sulfonamido)phenyl)propanoic Acid] belongs 100 to 1000 nM. The value for `Cc1ccc(N(C)S(=O)(=O)c2cccc3c(N(C)C)cccc23)cc1C[C@H](N)C(=O)O` [Compound 16, (S)-2-Amino-3-(5-((5-(dimethylamino)-N-methylnaphthalene)-1-sulfonamido)-2-methylphenyl)propanoic Acid] was 100 to 1000 nM; that for `Cc1ccc(NS(=O)(=O)c2ccc(-c3ccccc3)cc2)cc1C[C@H](N)C(=O)O` [Compound 17, (S)-3-(5-([1,1′-Biphenyl]-4-sulfonamido)-2-methylphenyl)-2-aminopropanoic Acid] was 100 to 1000 nM.

As to `Cc1ccc(NS(=O)(=O)c2cn(C)c(C)n2)cc1C[C@H](N)C(=O)O` [Compound 18, (S)-2-Amino-3-(5-((1,2-dimethyl-1H-imidazole)-4-sulfonamido)-2-methylphenyl)propanoic Acid], the IC50 is not below 10000 nM.

Regarding `CN(C)c1cccc2c(S(=O)(=O)Nc3ccccc3C[C@H](N)C(=O)O)cccc12` [Compound 19, (S)-2-Amino-3-(2-((5-(dimethylamino)naphthalene)-1-sulfonamido)phenyl)propanoic Acid], the IC50 lay within 100 to 1000 nM.

In the case of `Cc1ccc(NS(=O)(=O)C(C)C)cc1C[C@H](N)C(=O)O` [Compound 20, (S)-2-Amino-3-(2-methyl-5-((1-methylethyl)sulfonamido)phenyl)propanoic Acid], the IC50 is 1000 to 10000 nM.

With `Cc1ccc(NS(=O)(=O)C[C@@]23CC[C@H](CC2=O)C3(C)C)cc1C[C@H](N)C(=O)O` [Compound 22, (S)-2-Amino-3-(5-((((1R,4R)-7,7-dimethyl-2-oxobicyclo[2.2.1]heptan-1-yl)methyl)sulfonamido)-2-methylphenyl)propanoic Acid], the IC50 lay in the range of 1000 to 10000 nM. As for `Cc1ccc(NS(=O)(=O)Cc2ccccc2)cc1C[C@H](N)C(=O)O` [Compound 23, (S)-2-Amino-3-(2-methyl-5-((phenylmethyl)sulfonamido)phenyl)propanoic Acid], the IC50 fell in the range of 100 to 1000 nM. As for `Cc1ccc(NS(=O)(=O)c2ccc(Cl)c3nonc23)cc1C[C@H](N)C(=O)O` [Compound 24, (S)-2-Amino-3-(5-((7-chlorobenzo[c][1,2,5]oxadiazole)-4-sulfonamido)-2-methylphenyl)propanoic Acid], the IC50 is 1000 to 10000 nM. The value for `Cc1ccc(NS(=O)(=O)c2cccc3nonc23)cc1C[C@H](N)C(=O)O` [Compound 25, (S)-2-Amino-3-(5-(benzo[c][1,2,5]oxadiazole-4-sulfonamido)-2-methylphenyl)propanoic Acid] was 1000 to 10000 nM; that for `Cc1ccc(NS(=O)(=O)C2CCCCC2)cc1C[C@H](N)C(=O)O` [Compound 26, (S)-2-Amino-3-(5-(cyclohexanesulfonamido)-2-methylphenyl)propanoic Acid] was 100 to 1000 nM; that for `Cc1ccc(NS(=O)(=O)c2csc3ccccc23)cc1C[C@H](N)C(=O)O` [Compound 27, (S)-2-Amino-3-(5-(benzo[b]thiophene-3-sulfonamido)-2-methylphenyl)propanoic Acid] was 100 to 1000 nM. The value for `Cc1ccc(NS(=O)(=O)c2cccc(N)c2)cc1C[C@H](N)C(=O)O` [Compound 28, (S)-2-Amino-3-(5-((3-aminophenyl)sulfonamido)-2-methylphenyl)propanoic Acid] was 100 to 1000 nM; that for `Cc1ccc(NS(=O)(=O)c2c[nH]cn2)cc1C[C@H](N)C(=O)O` [Compound 31, (S)-3-(5-(1H-imidazole-4-sulfonamido)-2-methylphenyl)-2-aminopropanoic Acid] was not below 10000 nM; that for `Cc1ccc(S(=O)(=O)Nc2cccc(S(=O)(=O)Nc3ccc(C)c(C[C@H](N)C(=O)O)c3)c2)cc1` [Compound 32, (S)-2-Amino-3-(2-methyl-5-((3-((4-methylphenyl)sulfonamido)phenyl)sulfonamido)phenyl)propanoic Acid] was 100 to 1000 nM.

For the molecule `Cc1ccc(S(=O)(=O)Nc2ccc(S(=O)(=O)Nc3ccc(C)c(C[C@H](N)C(=O)O)c3)cc2)cc1` [Compound 33, (S)-2-Amino-3-(2-methyl-5-((4-((4-methylphenyl)sulfonamido)phenyl)sulfonamido)phenyl)propanoic Acid], the IC50 is 100 to 1000 nM. The value for `CC(C)c1ccc(NS(=O)(=O)c2cccc3c(N(C)C)cccc23)cc1C[C@@H](N)C(=O)O` [Compound 34, (R)-2-Amino-3-(5-((5-(dimethylamino)naphthalene)-1-sulfonamido)-2-isopropylphenyl)propanoic Acid] was 1000 to 10000 nM; that for `Cc1ccc(NS(=O)(=O)c2c(Cl)cc(C(F)(F)F)cc2Cl)cc1C[C@H](N)C(=O)O` [Compound 36, (S)-2-Amino-3-(5-((2,6-dichloro-4-(trifluoromethyl)phenyl)sulfonamido)-2-methylphenyl)propanoic Acid] was 1000 to 10000 nM. In the case of `N[C@@H](Cc1cccc(NS(=O)(=O)c2ccccc2)c1)C(=O)O` [Compound 37, (S)-2-Amino-3-(3-(phenylsulfonamido)phenyl)propanoic Acid], the IC50 was in the range of 100 to 1000 nM. To `Cc1ccc(NS(=O)(=O)c2c(Cl)cccc2Cl)cc1C[C@H](N)C(=O)O` [Compound 42, (S)-2-Amino-3-(5-((2,6-dichlorophenyl)sulfonamido)-2-methylphenyl)propanoic Acid] belongs 100 to 1000 nM; to `Cc1ccc(NS(=O)(=O)c2cc(Cl)cc(Cl)c2)cc1C[C@H](N)C(=O)O` [Compound 43, (S)-2-Amino-3-(5-((3,5-dichlorophenyl)sulfonamido)-2-methylphenyl)propanoic Acid], 100 to 1000 nM; to `Cc1ccc(S(=O)(=O)N2CCC[C@@H]2C(=O)O)cc1C[C@H](N)C(=O)O` [Compound 45, ((3-((S)-2-Amino-2-carboxyethyl)-4-methylphenyl)sulfonyl)-D-proline], not below 10000 nM.
